Data from ChEMBL document CHEMBL1123209, “Dipole moment in relation to H2 receptor histamine antagonist activity for cimetidine analogues” (J Med Chem, 1986).

Tests used:
[1] = Partition coefficient (logD) (octanol/borax buffer); format: physicochemical
[2] = target: Histamine H2 receptor (Cavia porcellus) (UniProt P47747); test: Histamine H2 receptor blocking activity was determined in the isolated guinea pig right atrium against histamine stimulated tachycardia; format: tissue-based; settings: Cardiac atrium
Histamine H2 receptor (Cavia porcellus), sequence (P47747 whole entry): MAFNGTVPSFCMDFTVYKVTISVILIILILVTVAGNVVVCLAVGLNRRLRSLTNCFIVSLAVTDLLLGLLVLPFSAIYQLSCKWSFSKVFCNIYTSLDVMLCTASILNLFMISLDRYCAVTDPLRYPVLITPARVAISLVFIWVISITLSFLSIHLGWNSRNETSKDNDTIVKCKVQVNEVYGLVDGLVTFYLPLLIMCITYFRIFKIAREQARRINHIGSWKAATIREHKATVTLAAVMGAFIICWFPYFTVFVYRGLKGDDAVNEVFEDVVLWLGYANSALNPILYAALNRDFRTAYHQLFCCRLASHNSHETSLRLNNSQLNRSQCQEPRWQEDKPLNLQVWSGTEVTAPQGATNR

SMILES	logD [1]	-Log KB [2]
CNC(=N[N+](=O)[O-])NCCSCc1nc[nH]c1C	0.13	
CN/C(=C/[N+](=O)[O-])NCCSCc1[nH]cnc1C	-0.4	5.85
Cc1[nH]cnc1CSCCNc1ccnc(O)n1	-0.4	< 4.5
Cc1[nH]cnc1CSCCNC1=NC(=O)CN1	-0.5	4.21
CNC(=S)NCCSCc1[nH]cnc1C		6.04
Cc1[nH]cnc1CSCCNC1=C([N+](=O)[O-])CCN1	-0.87	6.31
Cc1[nH]cnc1CSCCNc1cccc(O)n1	0.79	< 4
C/N=C(/NCCSCc1[nH]cnc1C)N[N+](=O)[O-]		5.84
CNC(=O)NCCSCc1[nH]cnc1C	-0.06	4.69
Cc1[nH]cnc1CSCCNc1cc(O)ccn1	0.8	4.8
Cc1[nH]cnc1CSCCNc1[nH]ccc1[N+](=O)[O-]	1.04	7.31

Second part, the compound after the results:

logD [1]	-Log KB [2]	SMILES
-0.74	4.57	Cc1[nH]cnc1CSCCNC1=NCCS(=O)(=O)N1
-0.2	6.44	Cc1[nH]cnc1CSCCNc1nccc(O)c1[N+](=O)[O-]
0.02	5.13	Cc1[nH]cnc1CSCCNc1nccc(O)n1
-0.08	4.23	C/N=c1\c(O)c(O)\c1=N\CCSCc1[nH]cnc1C
0.55		C/N=C(\S)NCCSCc1[nH]cnc1C [METIAMIDE]
